{"source": "patent US7462618B2", "about": "“Treatment of inflammatory autoimmune diseases with alpha-adrenergic antagonists and beta-adrenergic agonists” (Sun Health Research Institute, priority 2003, dated 2008)", "key": {"[1]": {"tested_on": "Lewis rats with AA", "experiment": "Adjuvant-induced arthritis, dorsoplantar footpad width (Example 1)", "type": "in vivo, rat", "settings": "single drug i.p. twice a day from day 12; by day 28 post-adjuvant injection", "experimental": "Lewis rats with AA, a model for RA, were used to examine the combined action of the β2-adrenergic receptor agonist terbutaline and the non-specific α-AR antagonist phentolamine. AA was induced in adult male Lewis rats (200-225 gm) by a base of the tail intradermal injection of complete Freund's adjuvant (CFA). The CFA (0.03 g dried and heat killed Mycobacterium butyricum (Difco, Detroit, Mich.) emulsified in 10 ml sterile mineral oil) was prepared by grinding the M. butyricum with a mortar and pestle until the bacterial cell wall turned from a light beige to an eggshell white powder. The mineral oil was then slowly worked into the bacterial cell wall using the mortar and pestle. The suspension was treated with a sonic dismembraner for 5 minutes to ensure that the bacterial cell wall remained suspended in the mineral oil for animal injections. While there was variability in the severity of disease development between the preparations of adjuvant, there was very little variability within individual batches. […] The inflammatory response in the arthritic rats was assessed by routine methods previously described. Dorsoplantar width of the hind feet were measured using a Mitutoyo Corporation dial thickness gauge, beginning the day of CFA-immunization and continued approximately every other day until sacrifice. […]"}, "[2]": {"tested_on": "IL-10/TNFα", "experiment": "Ex vivo IL-10 and TNFα production by cells of treated AA rats (sandwich ELISA)", "type": "in vivo, rat", "settings": "for Ratio of IL-10/TNFα: cells cultured 24 h, mean ± SEM, N = 6", "source_text": "To determine if the adrenergic drug treatments were able to modify cytokine patterns in the secondary lymphoid organs and systemically in the blood, pro- and anti-inflammatory cytokine profiles were obtained ex vivo from cells harvested from the draining (inguinal and poplitial) lymph nodes, spleen and the PBMC from the animals described above. All tissue culture media and supplements were obtained from Gibco BRL (Rockville, Md.) unless otherwise stated. OPTIA sandwich ELISA kits for IL-10 and TNFα were purchased from Pharmingen (San Diego, Calif.). The spleen and lymph nodes were aseptically removed from the animal and placed into Hank's balanced salt solution (HBSS). The spleens were placed in a stomacher bag and homogenized for 30 seconds. […] The collected cells were centrifuged and re-suspended in 5 ml of a NH4Cl hypotonic buffer for 3 min to lyse the red blood cells. The cells were washed 2× with 10 ml HBSS, centrifuged and re-suspended into complete RPMI 1640 media supplemented with 5% fetal calf serum and 1% antibiotic/antimycotic. The draining (inguinal and poplitial) lymph nodes were placed into sterile etri dishes containing 5 ml HBSS. […] The homogenates then were passed through a nylon mesh, centrifuged and re-suspended in 5 ml HBSS. The cells then were centrifuged and re-suspended into complete RPMI 1640 media supplemented with 5% fetal calf serum and 1% antibiotic/antimycotic. PBMCs: Blood was collected using cardiac puncture into a 7 ml lithium heparin vaccutainer tubes. The tubes were inverted 7 times and then spun down at 1000 rpm for 15 minutes at 10° C. The buffy coat was removed using a 2 ml pipette and placed into a sterile 15 ml tube containing 10 ml of a NH4Cl hypotonic buffer for 3 min to lyse the red blood cells. The peripheral blood mononuclear cells (PBMC) were centrifuged and re-suspended in 10 ml HBSS. The PBMC were washed three more times with 10 ml HBSS, centrifuged and re-suspended into complete RPMI 1640 media supplemented with 5% fetal calf serum and 1% antibiotic/antimycotic. The prepared cells were counted using a hemocytometer, then brought to the concentration of 2×10^6 cells/ml. Two ml of the cell preparation were plated into 24 well plates (Falcon, Oxnard, Calif.), and in placed in an incubator 7% CO2, 37° C., for 24 h. After 24 h the culture supernatants were harvested and placed in the freezer at -70° C. until ELISA assay. Optia kits for the detection of IL-10 and TNFα were obtained from BD Pharmingen (Los Angeles, Calif.) and sandwich ELISAs were used to measure the amount cytokine released into the culture media. In brief: High binding microtiter 96-well plates were pre-coated with 100 μl of capture antibody in coating buffer (0.1 M carbonate buffer, pH 9.5) for IL-2, IL-4, IFNγ and TNFα and (0.2 M phosphate buffer, pH 6.5) for IL-10. The plates were sealed with plate film (Denville Scientific, South Plainfield, N.J.) and placed at 4° C. overnight. The plates were allowed to come to room temperature and washed with 0.1 M phosphate buffered saline-0.5% Tween 20 (PBS-Tw20). The non-specific binding was blocked using PBS-Tw20 and 1% bovine serum albumin. Standard/sample was then added to each well, the plates were sealed and incubated overnight at 4° C. The plate was washed three times with PBS-Tw20 and biotinylated secondary detection antibody and streptavidin/avidin enzyme conjugate (diluted in PBS-1% bovine serum albumin) were added to the wells and the plates incubated for 1.5 h. The plates were then washed and developed with (TMB) reagent (Pharmingen, San Diego, Calif.) for 30 minutes. After color development the plates were stopped with addition of IN sulfuric acid. Unknown sample cytokine levels were determined through comparison with a standard curve present on each plate using an ELISA reader ([…]: Bio Tek Instruments Incorporated, Winooski, Vt.). […]"}, "[3]": {"tested_on": "Lewis rats with AA", "experiment": "Adjuvant-induced arthritis, radiographic scores of hind limbs (Example 1)", "type": "in vivo, rat", "settings": "i.p. twice a day from day 12; day 28", "experimental": "Lewis rats with AA, a model for RA, were used to examine the combined action of the β2-adrenergic receptor agonist terbutaline and the non-specific α-AR antagonist phentolamine. AA was induced in adult male Lewis rats (200-225 gm) by a base of the tail intradermal injection of complete Freund's adjuvant (CFA). The CFA (0.03 g dried and heat killed Mycobacterium butyricum (Difco, Detroit, Mich.) emulsified in 10 ml sterile mineral oil) was prepared by grinding the M. butyricum with a mortar and pestle until the bacterial cell wall turned from a light beige to an eggshell white powder. The mineral oil was then slowly worked into the bacterial cell wall using the mortar and pestle. The suspension was treated with a sonic dismembraner for 5 minutes to ensure that the bacterial cell wall remained suspended in the mineral oil for animal injections. While there was variability in the severity of disease development between the preparations of adjuvant, there was very little variability within individual batches. All animals in each experiment were challenged with the same preparation of adjuvant and 100% of the animals developed arthritis. Phentolamine (an α-adrenergic receptor antagonist) and terbutaline (a β2-adrenergic receptor agonist) were obtained from Sigma Chemical Company (St. Louis, Mo.). Both adrenergic drugs were dissolved in 0.01 mM ascorbic acid in 0.9% sterile, endotoxin-free saline. Adrenergic therapy with phentolamine and/or terbutaline or vehicle was started on day 12 post-immunization, the time of disease onset, and continued until sacrifice. The dose of phentolamine (500 μg/Kg/day) and/or terbutaline (600 μg/day) were administered by intraperitoneal (i.p.) injections twice a day in a total volume of 500 μl per injection. […] X-rays were evaluated using a grading scale modified from Ackerman and coworkers. […] The radiographs were scored for each of the following characteristics: (1) swelling as indicated by the width of soft tissue shadows and alterations in the normal configuration of the soft tissue planes; (2) osteoporosis as measured by bone density (recognized by increases in radiolucency relative to uninvolved adjacent bone); (3) cartilage loss shown by narrowing of the joint spaces; and (4) heterotopic ossification defined as proliferation of new bone tissue (fine ossified line paralleling normal bone but not contiguous with calcified area of the bone itself). The radiographic scores for each category were added for both hind limbs giving a maximum score of 40, and the individual scores for each animal were then averaged within the treatment groups and expressed as a mean±standard error of the mean (SEM), and subjected to Kruskal-Wallis statistical analysis (non-parametric statistic equivalent to an ANOVA; p<0.05) followed by Dunn post-hoc testing. […]"}, "[4]": {"tested_on": "Th cells cultured with B cell clones", "settings": "applied to Th cells before activation, cited from earlier work"}, "[5]": {"tested_on": "Th2 cell clones", "settings": "treated before activation; cited from earlier work"}, "[6]": {"tested_on": "Th1 cell clones", "settings": "cited from earlier work"}, "[7]": {"tested_on": "animals with fully expressed AA", "settings": "cited from earlier work"}, "[8]": {"tested_on": "collagen-induced arthritis", "settings": "in vivo; cited from earlier work"}}}
{"smiles": "Cc1ccc(N(CC2=NCCN2)c2cccc(O)c2)cc1", "note": "[Phentolamine]", "values": [{"measurement": "Soft tissue swelling (dorsoplantar footpad width) compared with vehicle-treated AA rats", "setting": "[1]", "result": "significantly decreased"}, {"measurement": "Ratio of IL-10/TNFα", "setting": "[2]; DLN", "result": "1.0960 ± 0.1961"}, {"measurement": "Ratio of IL-10/TNFα", "setting": "[2]; PBL", "result": "0.8067 ± 0.1762"}, {"measurement": "Ratio of IL-10/TNFα", "setting": "[2]; SPL", "result": "3.3350 ± 0.6716"}, {"measurement": "Ratio of anti- to pro-inflammatory cytokine production by macrophage cells", "setting": "[2]; secondary lymphoid organs and peripheral blood", "result": "increase"}, {"measurement": "Decrease in bone loss compared to vehicle-treated AA rats", "setting": "[3]", "result": 51, "unit": "%"}, {"measurement": "Radiographic scores compared with vehicle controls", "setting": "[3]", "result": "significantly reduced"}]}
{"smiles": "CC(C)(C)NCC(O)c1cc(O)cc(O)c1", "note": "(centres unmarked) [Terbutaline, terbutaline]", "values": [{"measurement": "Soft tissue swelling (dorsoplantar footpad width) compared with vehicle-treated AA rats", "setting": "[1]", "result": "significantly decreased"}, {"measurement": "Ratio of IL-10/TNFα", "setting": "[2]; DLN", "result": "1.5060 ± 0.1642"}, {"measurement": "Ratio of IL-10/TNFα", "setting": "[2]; PBL", "result": "0.4382 ± 0.0471"}, {"measurement": "Ratio of IL-10/TNFα", "setting": "[2]; SPL", "result": "2.1370 ± 0.8285"}, {"measurement": "IgG2a production", "setting": "[4]; blockable by nadolol or IFNγ", "result": "inhibited"}, {"measurement": "IgG1 production", "setting": "[4]", "result": "not"}, {"measurement": "Decrease in bone loss compared to vehicle-treated AA rats", "setting": "[3]", "result": "~50", "unit": "%"}, {"measurement": "Radiographic scores compared with vehicle controls", "setting": "[3]", "result": "significantly reduced"}, {"measurement": "IL-4 or IL-10 production by Th2 cell clones", "setting": "[5]", "result": "does not affect"}, {"measurement": "IL-2-dependent T cell proliferation", "setting": "[6]", "result": "reduced"}, {"measurement": "IL-2 and IFNγ production by Th1 cell clones", "setting": "[6]; treated before activation with antigen-specific B cells or anti-CD3 antibodies", "result": "inhibits"}]}
{"smiles": "O=P(O)(O)C(Cl)(Cl)P(=O)(O)O", "note": "[clodronate]", "values": [{"measurement": "Joint inflammation and destruction", "setting": "[7]", "result": "significantly reduced"}]}
{"smiles": "CC(C)(C)NCC(O)c1ccc(O)c(CO)c1", "note": "(centres unmarked) [salbutamol]", "values": [{"measurement": "Severity of collagen-induced arthritis", "setting": "[8]", "result": "reduces the severity"}]}
